Test results: ChEMBL document CHEMBL1800013, “Small molecule inhibitors of SHP2 tyrosine phosphatase discovered by virtual screening” (Bioorg Med Chem Lett, 2011)
Activity calls are given as the source filed them. No cut-off for these calls is given here.

Key:
[1] = target: T1, Tyrosine-protein phosphatase non-receptor type 1 (Homo sapiens, UniProt P18031); assay: Inhibition of PTP1B
T1 sequence (P18031 whole entry): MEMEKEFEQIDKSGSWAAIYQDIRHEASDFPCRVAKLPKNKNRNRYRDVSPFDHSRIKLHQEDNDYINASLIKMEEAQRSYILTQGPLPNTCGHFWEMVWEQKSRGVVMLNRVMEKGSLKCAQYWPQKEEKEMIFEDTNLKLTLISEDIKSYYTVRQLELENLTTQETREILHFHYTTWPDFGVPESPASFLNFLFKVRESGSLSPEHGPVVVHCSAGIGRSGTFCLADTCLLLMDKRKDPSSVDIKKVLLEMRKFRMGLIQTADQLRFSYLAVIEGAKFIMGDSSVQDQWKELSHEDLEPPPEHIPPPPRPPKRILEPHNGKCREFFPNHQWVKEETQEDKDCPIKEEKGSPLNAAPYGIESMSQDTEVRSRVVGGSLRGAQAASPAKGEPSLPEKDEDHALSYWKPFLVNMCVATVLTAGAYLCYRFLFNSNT

[2] = target: T2, Tyrosine-protein phosphatase non-receptor type 2 (Homo sapiens, UniProt P17706); assay: Inhibition of TC-PTP
T2 sequence (P17706 whole entry): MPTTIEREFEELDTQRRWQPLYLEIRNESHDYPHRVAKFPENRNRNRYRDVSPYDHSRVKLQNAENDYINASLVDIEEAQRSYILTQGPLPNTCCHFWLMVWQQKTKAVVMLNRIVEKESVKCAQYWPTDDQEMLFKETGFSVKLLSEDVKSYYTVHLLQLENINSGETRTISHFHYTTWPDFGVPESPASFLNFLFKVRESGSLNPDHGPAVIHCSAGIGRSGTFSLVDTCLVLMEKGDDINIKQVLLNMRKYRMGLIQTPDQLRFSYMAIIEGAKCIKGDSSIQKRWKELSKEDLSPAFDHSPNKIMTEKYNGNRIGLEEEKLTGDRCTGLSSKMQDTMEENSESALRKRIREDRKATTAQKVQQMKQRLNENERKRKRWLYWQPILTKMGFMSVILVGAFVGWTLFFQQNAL

[3] = target: T3, Receptor-type tyrosine-protein phosphatase C (Homo sapiens, UniProt P08575); assay: Inhibition of CD45
T3 sequence (P08575 whole entry): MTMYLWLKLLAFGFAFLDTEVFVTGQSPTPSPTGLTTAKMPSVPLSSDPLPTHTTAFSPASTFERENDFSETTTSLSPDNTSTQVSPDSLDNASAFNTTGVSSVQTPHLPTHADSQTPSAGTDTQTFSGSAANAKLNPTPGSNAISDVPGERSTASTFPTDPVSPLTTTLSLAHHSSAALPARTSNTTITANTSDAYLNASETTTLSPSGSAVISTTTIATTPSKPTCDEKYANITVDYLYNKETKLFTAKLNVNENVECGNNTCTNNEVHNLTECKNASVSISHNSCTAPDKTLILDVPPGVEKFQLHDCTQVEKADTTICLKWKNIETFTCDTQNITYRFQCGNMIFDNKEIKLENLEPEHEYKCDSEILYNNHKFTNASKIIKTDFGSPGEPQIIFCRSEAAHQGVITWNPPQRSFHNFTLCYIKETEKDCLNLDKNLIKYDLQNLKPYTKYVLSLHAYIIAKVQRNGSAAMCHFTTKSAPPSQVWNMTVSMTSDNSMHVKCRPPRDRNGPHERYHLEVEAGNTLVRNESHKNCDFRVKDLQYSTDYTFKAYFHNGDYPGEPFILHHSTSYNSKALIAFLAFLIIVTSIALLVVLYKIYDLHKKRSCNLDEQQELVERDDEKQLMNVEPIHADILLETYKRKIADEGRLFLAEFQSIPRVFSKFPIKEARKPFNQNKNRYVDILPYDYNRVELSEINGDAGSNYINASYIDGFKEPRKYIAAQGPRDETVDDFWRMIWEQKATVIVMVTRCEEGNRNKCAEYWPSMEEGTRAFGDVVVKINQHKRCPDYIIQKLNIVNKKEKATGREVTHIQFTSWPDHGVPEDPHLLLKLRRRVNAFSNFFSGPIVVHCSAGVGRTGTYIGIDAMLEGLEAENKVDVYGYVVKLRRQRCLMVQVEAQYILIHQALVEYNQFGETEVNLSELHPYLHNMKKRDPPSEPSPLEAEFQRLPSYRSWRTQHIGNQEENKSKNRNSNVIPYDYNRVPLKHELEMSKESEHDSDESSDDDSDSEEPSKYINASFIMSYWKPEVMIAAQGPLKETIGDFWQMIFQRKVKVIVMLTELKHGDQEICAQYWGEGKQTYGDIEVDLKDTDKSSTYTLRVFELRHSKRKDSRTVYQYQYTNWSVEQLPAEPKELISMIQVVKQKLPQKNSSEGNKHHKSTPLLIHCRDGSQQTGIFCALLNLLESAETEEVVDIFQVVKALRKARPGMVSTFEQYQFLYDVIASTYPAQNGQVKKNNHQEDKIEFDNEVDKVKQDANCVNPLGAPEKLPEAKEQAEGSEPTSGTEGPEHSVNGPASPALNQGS

[4] = target: Receptor-type tyrosine-protein phosphatase F (Homo sapiens, UniProt P10586); assay: Inhibition of LAR
[5] = target: T4, Tyrosine-protein phosphatase non-receptor type 22 (Homo sapiens) (UniProt Q9Y2R2); assay: Inhibition of LYP at 100 uM
T4 sequence (whole entry): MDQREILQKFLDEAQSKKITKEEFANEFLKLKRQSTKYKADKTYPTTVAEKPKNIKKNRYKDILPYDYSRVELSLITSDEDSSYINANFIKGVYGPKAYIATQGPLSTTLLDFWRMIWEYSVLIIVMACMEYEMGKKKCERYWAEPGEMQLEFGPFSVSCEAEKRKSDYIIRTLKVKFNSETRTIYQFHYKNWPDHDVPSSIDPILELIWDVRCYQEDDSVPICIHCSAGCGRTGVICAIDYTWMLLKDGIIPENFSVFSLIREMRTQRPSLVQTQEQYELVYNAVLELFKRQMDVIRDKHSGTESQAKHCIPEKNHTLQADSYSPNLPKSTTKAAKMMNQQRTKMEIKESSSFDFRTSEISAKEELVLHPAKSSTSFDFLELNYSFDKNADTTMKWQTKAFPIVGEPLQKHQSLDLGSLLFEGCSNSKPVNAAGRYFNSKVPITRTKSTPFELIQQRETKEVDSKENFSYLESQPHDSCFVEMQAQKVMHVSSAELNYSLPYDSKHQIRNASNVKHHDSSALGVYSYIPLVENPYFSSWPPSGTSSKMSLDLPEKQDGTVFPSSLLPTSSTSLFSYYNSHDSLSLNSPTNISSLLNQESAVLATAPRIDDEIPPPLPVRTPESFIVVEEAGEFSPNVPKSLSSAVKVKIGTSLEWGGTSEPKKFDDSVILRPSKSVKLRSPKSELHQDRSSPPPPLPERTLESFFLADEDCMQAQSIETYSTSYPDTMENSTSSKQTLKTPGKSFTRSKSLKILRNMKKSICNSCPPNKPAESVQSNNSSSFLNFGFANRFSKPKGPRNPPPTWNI

[6] = target: Receptor-type tyrosine-protein phosphatase alpha (Homo sapiens) (UniProt P18433); assay: Inhibition of PTPalpha at 100 uM
Chain of Receptor-type tyrosine-protein phosphatase alpha (Homo sapiens) (P18433 20-802 limits assumed): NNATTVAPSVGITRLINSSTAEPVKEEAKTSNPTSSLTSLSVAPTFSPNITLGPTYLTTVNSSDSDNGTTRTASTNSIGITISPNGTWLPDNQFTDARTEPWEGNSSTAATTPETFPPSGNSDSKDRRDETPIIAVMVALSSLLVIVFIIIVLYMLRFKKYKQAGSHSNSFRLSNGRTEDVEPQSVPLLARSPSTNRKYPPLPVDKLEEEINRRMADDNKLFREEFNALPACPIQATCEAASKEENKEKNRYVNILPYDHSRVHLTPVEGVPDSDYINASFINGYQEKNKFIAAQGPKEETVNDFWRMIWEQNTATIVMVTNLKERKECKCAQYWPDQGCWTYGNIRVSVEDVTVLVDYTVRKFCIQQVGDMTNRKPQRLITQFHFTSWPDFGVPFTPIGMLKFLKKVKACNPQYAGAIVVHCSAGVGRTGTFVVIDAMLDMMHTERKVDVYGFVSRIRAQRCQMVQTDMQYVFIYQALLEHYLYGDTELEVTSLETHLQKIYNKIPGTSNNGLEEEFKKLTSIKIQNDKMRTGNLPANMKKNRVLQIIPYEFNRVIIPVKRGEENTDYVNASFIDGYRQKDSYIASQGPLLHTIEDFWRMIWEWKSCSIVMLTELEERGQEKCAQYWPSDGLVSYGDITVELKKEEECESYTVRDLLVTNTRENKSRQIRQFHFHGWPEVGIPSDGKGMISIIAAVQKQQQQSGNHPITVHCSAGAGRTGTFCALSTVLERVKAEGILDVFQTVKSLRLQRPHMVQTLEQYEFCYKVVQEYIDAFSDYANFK

Chain of Receptor-type tyrosine-protein phosphatase F (P10586 whole entry): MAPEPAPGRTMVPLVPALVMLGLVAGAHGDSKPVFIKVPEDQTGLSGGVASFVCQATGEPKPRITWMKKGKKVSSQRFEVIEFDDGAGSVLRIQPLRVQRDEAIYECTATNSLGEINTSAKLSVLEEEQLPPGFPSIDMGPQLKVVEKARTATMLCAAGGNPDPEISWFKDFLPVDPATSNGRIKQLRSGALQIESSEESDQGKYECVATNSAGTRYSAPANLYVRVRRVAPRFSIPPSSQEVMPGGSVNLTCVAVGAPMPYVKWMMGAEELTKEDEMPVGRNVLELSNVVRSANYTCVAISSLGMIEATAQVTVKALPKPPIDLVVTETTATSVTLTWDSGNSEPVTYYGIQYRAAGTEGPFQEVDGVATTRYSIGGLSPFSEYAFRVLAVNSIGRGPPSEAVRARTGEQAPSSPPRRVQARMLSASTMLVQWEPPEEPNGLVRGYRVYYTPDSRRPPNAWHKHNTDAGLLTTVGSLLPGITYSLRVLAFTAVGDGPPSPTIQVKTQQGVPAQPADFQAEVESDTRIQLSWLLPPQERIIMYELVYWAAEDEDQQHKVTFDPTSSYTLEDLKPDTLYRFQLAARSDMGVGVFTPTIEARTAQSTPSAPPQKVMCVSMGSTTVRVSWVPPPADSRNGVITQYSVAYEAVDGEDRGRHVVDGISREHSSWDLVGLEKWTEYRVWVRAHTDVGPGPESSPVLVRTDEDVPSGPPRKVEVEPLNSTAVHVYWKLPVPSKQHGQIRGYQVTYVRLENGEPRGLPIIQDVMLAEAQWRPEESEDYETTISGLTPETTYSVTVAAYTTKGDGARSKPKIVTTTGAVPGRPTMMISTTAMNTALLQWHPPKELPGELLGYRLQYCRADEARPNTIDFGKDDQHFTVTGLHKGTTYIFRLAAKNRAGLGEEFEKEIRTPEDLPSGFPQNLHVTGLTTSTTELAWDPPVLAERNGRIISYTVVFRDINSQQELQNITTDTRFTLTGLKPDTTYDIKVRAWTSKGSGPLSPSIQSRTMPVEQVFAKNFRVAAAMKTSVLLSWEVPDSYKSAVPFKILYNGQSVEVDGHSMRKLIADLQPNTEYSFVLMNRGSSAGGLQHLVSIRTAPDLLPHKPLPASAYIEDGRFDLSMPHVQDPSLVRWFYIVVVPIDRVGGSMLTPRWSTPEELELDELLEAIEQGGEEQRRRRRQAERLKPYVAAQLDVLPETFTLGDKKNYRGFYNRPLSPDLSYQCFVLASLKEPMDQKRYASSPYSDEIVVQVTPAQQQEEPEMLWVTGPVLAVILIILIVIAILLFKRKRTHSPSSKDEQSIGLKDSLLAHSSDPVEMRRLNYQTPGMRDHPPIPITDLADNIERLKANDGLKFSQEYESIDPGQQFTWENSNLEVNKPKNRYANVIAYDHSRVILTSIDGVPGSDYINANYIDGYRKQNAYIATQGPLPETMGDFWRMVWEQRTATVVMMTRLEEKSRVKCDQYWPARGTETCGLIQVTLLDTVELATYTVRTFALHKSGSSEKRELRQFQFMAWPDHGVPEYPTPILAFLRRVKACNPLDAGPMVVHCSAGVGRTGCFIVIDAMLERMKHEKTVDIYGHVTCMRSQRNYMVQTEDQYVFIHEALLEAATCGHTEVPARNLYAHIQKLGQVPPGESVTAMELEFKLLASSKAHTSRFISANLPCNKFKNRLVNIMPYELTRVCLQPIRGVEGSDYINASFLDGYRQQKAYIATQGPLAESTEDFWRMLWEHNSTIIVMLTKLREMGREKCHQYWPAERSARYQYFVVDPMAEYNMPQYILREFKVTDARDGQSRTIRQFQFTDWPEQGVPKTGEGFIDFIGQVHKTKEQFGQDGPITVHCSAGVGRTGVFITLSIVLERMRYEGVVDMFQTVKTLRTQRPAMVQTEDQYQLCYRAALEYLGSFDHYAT

SMILES: Cc1cc(S(=O)(=O)O)c(S(=O)(=O)O)cc1N1N=C(C(=O)O)CC1=O
- IC50 [1]: 118 µM
- IC50 [2]: > 100 µM
- IC50 [3]: > 100 µM
- IC50 [4]: > 100 µM
- inhibition [5]: inactive
- inhibition [6]: inactive
